Laboratory results as given in PubChem BioAssay (NCI).
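GI50 marks 50% less growth. Definition used: TGI = concentration required for complete inhibition of growth.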

Assays:
Test in all cases: DTP human tumour cell line panel, 384-well format
SNB-75 CNS = system: SNB-75 CNS
HOP-92 NSCLC = system: HOP-92 NSCLC
OVCAR-3 ovarian = system: OVCAR-3 ovarian
UO-31 renal = system: UO-31 renal
LOX IMVI melanoma = system: LOX IMVI melanoma
UACC-257 melanoma = system: UACC-257 melanoma
HOP-62 NSCLC = system: HOP-62 NSCLC
MCF7 breast = system: MCF7 breast
EKVX NSCLC = system: EKVX NSCLC
MDA-MB-468 breast = system: MDA-MB-468 breast
SK-MEL-5 melanoma = system: SK-MEL-5 melanoma
SF-295 CNS = system: SF-295 CNS
RXF 393 renal = system: RXF 393 renal
OVCAR-8 ovarian = system: OVCAR-8 ovarian
DU-145 prostate = system: DU-145 prostate
HS 578T breast = system: HS 578T breast
T-47D breast = system: T-47D breast
OVCAR-4 ovarian = system: OVCAR-4 ovarian
SNB-19 CNS = system: SNB-19 CNS
SK-OV-3 ovarian = system: SK-OV-3 ovarian
A498 renal = system: A498 renal
MDA-MB-231 breast = system: MDA-MB-231 breast
IGROV1 ovarian = system: IGROV1 ovarian
OVCAR-5 ovarian = system: OVCAR-5 ovarian
MALME-3M melanoma = system: MALME-3M melanoma
BT-549 breast = system: BT-549 breast
SK-MEL-28 melanoma = system: SK-MEL-28 melanoma
SF-539 CNS = system: SF-539 CNS
NCI-H322M lung = system: NCI-H322M lung
KM12 colon = system: KM12 colon
NCI-H226 lung = system: NCI-H226 lung
RPMI-8226 leukemia = system: RPMI-8226 leukemia
HCT-116 colon = system: HCT-116 colon
K-562 leukemia = system: K-562 leukemia
ACHN renal = system: ACHN renal
HT29 colon = system: HT29 colon
NCI-H522 lung = system: NCI-H522 lung
MOLT-4 leukemia = system: MOLT-4 leukemia
HCT-15 colon = system: HCT-15 colon
CAKI-1 renal = system: CAKI-1 renal
COLO 205 colon = system: COLO 205 colon
HL-60(TB) leukemia = system: HL-60(TB) leukemia
786-0 renal = system: 786-0 renal
NCI-H460 NSCLC = system: NCI-H460 NSCLC
UACC-62 melanoma = system: UACC-62 melanoma
SW-620 colon = system: SW-620 colon
SN12C renal = system: SN12C renal
NCI/ADR-RES ovarian = system: NCI/ADR-RES ovarian
A549 NSCLC = system: A549 NSCLC
SF-268 CNS = system: SF-268 CNS
PC-3 prostate = system: PC-3 prostate
CCRF-CEM leukemia = system: CCRF-CEM leukemia
HCC-2998 colon = system: HCC-2998 colon
MDA-MB-435 melanoma = system: MDA-MB-435 melanoma
M14 melanoma = system: M14 melanoma
NCI-H23 lung = system: NCI-H23 lung
TK-10 renal = system: TK-10 renal
U251 glioblastoma = system: U251 glioblastoma

For `Cc1csc(-c2nnc(Nc3ccc(Oc4ncccc4-c4ccnc(N)n4)cc3)c3ccccc23)c1`, the GI50 (SNB-75 CNS) was 5920 nM, the TGI (SNB-75 CNS) was > 100000 nM and the GI50 (HOP-92 NSCLC) was 1960 nM. The TGI (HOP-92 NSCLC) was 43300 nM, the GI50 (OVCAR-3 ovarian) was 53.6 nM and the TGI (OVCAR-3 ovarian) was > 100000 nM. For the same molecule, the GI50 (UO-31 renal) was 2420 nM, the TGI (UO-31 renal) was > 100000 nM and the GI50 (LOX IMVI melanoma) was 187 nM. The TGI (LOX IMVI melanoma) was > 100000 nM, the GI50 (UACC-257 melanoma) was 1480 nM and the TGI (UACC-257 melanoma) was 43200 nM. For the same molecule, the GI50 (HOP-62 NSCLC) was 89.4 nM, the TGI (HOP-62 NSCLC) was > 100000 nM and the GI50 (MCF7 breast) was 547 nM. For the same molecule, the TGI (MCF7 breast) was 13100 nM, the GI50 (EKVX NSCLC) was 918 nM and the TGI (EKVX NSCLC) was > 100000 nM. For the same molecule, the GI50 (MDA-MB-468 breast) was < 10 nM, the TGI (MDA-MB-468 breast) was < 10 nM and the GI50 (SK-MEL-5 melanoma) was 976 nM. For the same molecule, the TGI (SK-MEL-5 melanoma) was > 100000 nM, the GI50 (SF-295 CNS) was 51.7 nM and the TGI (SF-295 CNS) was > 100000 nM. For the same molecule, the GI50 (RXF 393 renal) was < 10 nM, the TGI (RXF 393 renal) was 5030 nM and the GI50 (OVCAR-8 ovarian) was 1340 nM. The TGI (OVCAR-8 ovarian) was > 100000 nM, the GI50 (DU-145 prostate) was 2100 nM and the TGI (DU-145 prostate) was > 100000 nM. The GI50 (HS 578T breast) was < 10 nM, the TGI (HS 578T breast) was 17600 nM and the GI50 (T-47D breast) was 1440 nM. The TGI (T-47D breast) was 4880 nM, the GI50 (OVCAR-4 ovarian) was 5320 nM and the TGI (OVCAR-4 ovarian) was > 100000 nM. The GI50 (SNB-19 CNS) was 19600 nM, the TGI (SNB-19 CNS) was > 100000 nM and the GI50 (SK-OV-3 ovarian) was 3820 nM. The TGI (SK-OV-3 ovarian) was > 100000 nM, the GI50 (A498 renal) was 253 nM and the TGI (A498 renal) was > 100000 nM. For the same molecule, the GI50 (MDA-MB-231 breast) was 2340 nM, the TGI (MDA-MB-231 breast) was > 100000 nM and the GI50 (IGROV1 ovarian) was 1540 nM. For the same molecule, the TGI (IGROV1 ovarian) was > 100000 nM, the GI50 (OVCAR-5 ovarian) was 7210 nM and the TGI (OVCAR-5 ovarian) was > 100000 nM. For the same molecule, the GI50 (MALME-3M melanoma) was 1510 nM, the TGI (MALME-3M melanoma) was 6120 nM and the GI50 (BT-549 breast) was 191 nM. For the same molecule, the TGI (BT-549 breast) was > 100000 nM, the GI50 (SK-MEL-28 melanoma) was 1510 nM and the TGI (SK-MEL-28 melanoma) was 9780 nM. For the same molecule, the GI50 (SF-539 CNS) was 141 nM, the TGI (SF-539 CNS) was > 100000 nM and the GI50 (NCI-H322M lung) was 4920 nM. The TGI (NCI-H322M lung) was > 100000 nM, the GI50 (KM12 colon) was 1690 nM and the TGI (KM12 colon) was > 100000 nM. The GI50 (NCI-H226 lung) was 3250 nM, the TGI (NCI-H226 lung) was > 100000 nM and the GI50 (RPMI-8226 leukemia) was 10.1 nM. For the same molecule, the TGI (RPMI-8226 leukemia) was 2470 nM, the GI50 (HCT-116 colon) was 33.1 nM and the TGI (HCT-116 colon) was > 100000 nM. For the same molecule, the GI50 (K-562 leukemia) was 552 nM, the TGI (K-562 leukemia) was > 100000 nM and the GI50 (ACHN renal) was 878 nM. For the same molecule, the TGI (ACHN renal) was > 100000 nM, the GI50 (HT29 colon) was 271 nM and the TGI (HT29 colon) was 2950 nM. For the same molecule, the GI50 (NCI-H522 lung) was 12.1 nM, the TGI (NCI-H522 lung) was 4590 nM and the GI50 (MOLT-4 leukemia) was < 10 nM. The TGI (MOLT-4 leukemia) was < 10 nM, the GI50 (HCT-15 colon) was 586 nM and the TGI (HCT-15 colon) was > 100000 nM. For the same molecule, the GI50 (CAKI-1 renal) was 682 nM, the TGI (CAKI-1 renal) was > 100000 nM and the GI50 (COLO 205 colon) was < 10 nM. The TGI (COLO 205 colon) was < 10 nM, the GI50 (HL-60(TB) leukemia) was < 10 nM and the TGI (HL-60(TB) leukemia) was 1110 nM. The GI50 ([…]-0 renal) was 2710 nM, the TGI (786-0 renal) was > 100000 nM and the GI50 (NCI-H460 NSCLC) was < 10 nM. It also gave a TGI (NCI-H460 NSCLC) of 1290 nM, a GI50 (UACC-62 melanoma) of 202 nM and a TGI (UACC-62 melanoma) of 5220 nM. The GI50 (SW-620 colon) was 181 nM, the TGI (SW-620 colon) was 3130 nM and the GI50 (SN12C renal) was 1130 nM. For the same molecule, the TGI (SN12C renal) was > 100000 nM, the GI50 (NCI/ADR-RES ovarian) was 166 nM and the TGI (NCI/ADR-RES ovarian) was > 100000 nM. For the same molecule, the GI50 (A549 NSCLC) was < 10 nM, the TGI (A549 NSCLC) was > 100000 nM and the GI50 (SF-268 CNS) was < 10 nM. For the same molecule, the TGI (SF-268 CNS) was 56.4 nM, the GI50 (PC-3 prostate) was 4050 nM and the TGI (PC-3 prostate) was > 100000 nM. The GI50 (CCRF-CEM leukemia) was < 10 nM, the TGI (CCRF-CEM leukemia) was < 10 nM and the GI50 (HCC-2998 colon) was 1440 nM. The TGI (HCC-2998 colon) was 3530 nM, the GI50 (MDA-MB-435 melanoma) was 1810 nM and the TGI (MDA-MB-435 melanoma) was > 100000 nM. The GI50 (M14 melanoma) was 99.5 nM, the TGI (M14 melanoma) was 3080 nM and the GI50 (NCI-H23 lung) was 1200 nM. The TGI (NCI-H23 lung) was 16300 nM, the GI50 (TK-10 renal) was 1890 nM and the TGI (TK-10 renal) was > 100000 nM. The GI50 (U251 glioblastoma) was 2910 nM and the TGI (U251 glioblastoma) was > 100000 nM.
